Results as given in patent US11851440B2, “Modulators of eukaryotic initiation factor 2B, compositions and methods” (Denali Therapeutics Inc., priority 2017, dated 2023).
Like-named read-outs stand apart in the source and are kept apart here.

Tests used:
[1] = target: T1, P-gp (P-glycoprotein, MDR1) (Homo sapiens, UniProt P08183); test: MDCKII-MDR1 permeability, bidirectional assay; assay type: in vitro ADME; details: dog, MDCK-MDR1, MDCKII-MDR1 cells, HBSS+12.5 mM HEPES pH 7.4
T1 construct: host or cells: MDCKII-MDR1 cells (pre-plated, Corning HTS Transwell-96)
Description: The blood brain barrier (BBB) separates circulating blood from the extracellular fluid of the central nervous system (CNS). […] A bidirectional assay (Apical to Basolateral (A→B) and Basolateral to Apical (B→A)), in the absence and in the presence of GF120918 (a P-gp inhibitor) was conducted using pre-plated MDCKII-MDR1 cells (Corning HTS Transwell-96) obtained from SOLVO Biotechnology. The assay was run at 3 μM for 90 min (minutes) in triplicate using a HBSS+12.5 mM HEPES pH 7.4 transport buffer. Following incubation of samples from donor and receiver, wells were removed and measured by LC-MS/MS. Samples were extracted by protein precipitation with acetonitrile containing an appropriate internal standard (IS) having a known mass and molecular weight. The precipitate was centrifuged for 10 min at 3000 rpm (revolutions per minute). The supernatants were then collected, diluted if necessary, and injected on to the LC-MS/MS system. Specific parent/daughter ion pairs for the test article and IS were used to selectively measure the test articles. Papp (apparent permeability expressed in nm/sec [nanometer/second]) values were calculated according to the following equation: […]
Where dQ/dt is the permeability rate, C0 is the initial concentration in the donor solution (expressed as IS ratio), A and B are the surface areas of the filter (the surface area of the cell monolayer).
Monolayer efflux ratios (ER) were derived using the following equation: […]

[2] = tested on: ISR pathway (ATF4 translation); test: ATF4 Nano Luciferase reporter integrated stress response (ISR) assay in H4 ATF4-NLuc cells; details: Homo sapiens
[3] = H4 ATF4-NLuc (clone 17) cells, compound 30 minutes, then 50 um sodium arsenite for 6 hours, luminescence readout
[4] = read-out: Activity (IC50), H4 ATF4-NLuc (clone 17) cells, compound 30 minutes, then 50 um sodium arsenite for 6 hours, luminescence readout

T1 sequence (P08183 whole entry): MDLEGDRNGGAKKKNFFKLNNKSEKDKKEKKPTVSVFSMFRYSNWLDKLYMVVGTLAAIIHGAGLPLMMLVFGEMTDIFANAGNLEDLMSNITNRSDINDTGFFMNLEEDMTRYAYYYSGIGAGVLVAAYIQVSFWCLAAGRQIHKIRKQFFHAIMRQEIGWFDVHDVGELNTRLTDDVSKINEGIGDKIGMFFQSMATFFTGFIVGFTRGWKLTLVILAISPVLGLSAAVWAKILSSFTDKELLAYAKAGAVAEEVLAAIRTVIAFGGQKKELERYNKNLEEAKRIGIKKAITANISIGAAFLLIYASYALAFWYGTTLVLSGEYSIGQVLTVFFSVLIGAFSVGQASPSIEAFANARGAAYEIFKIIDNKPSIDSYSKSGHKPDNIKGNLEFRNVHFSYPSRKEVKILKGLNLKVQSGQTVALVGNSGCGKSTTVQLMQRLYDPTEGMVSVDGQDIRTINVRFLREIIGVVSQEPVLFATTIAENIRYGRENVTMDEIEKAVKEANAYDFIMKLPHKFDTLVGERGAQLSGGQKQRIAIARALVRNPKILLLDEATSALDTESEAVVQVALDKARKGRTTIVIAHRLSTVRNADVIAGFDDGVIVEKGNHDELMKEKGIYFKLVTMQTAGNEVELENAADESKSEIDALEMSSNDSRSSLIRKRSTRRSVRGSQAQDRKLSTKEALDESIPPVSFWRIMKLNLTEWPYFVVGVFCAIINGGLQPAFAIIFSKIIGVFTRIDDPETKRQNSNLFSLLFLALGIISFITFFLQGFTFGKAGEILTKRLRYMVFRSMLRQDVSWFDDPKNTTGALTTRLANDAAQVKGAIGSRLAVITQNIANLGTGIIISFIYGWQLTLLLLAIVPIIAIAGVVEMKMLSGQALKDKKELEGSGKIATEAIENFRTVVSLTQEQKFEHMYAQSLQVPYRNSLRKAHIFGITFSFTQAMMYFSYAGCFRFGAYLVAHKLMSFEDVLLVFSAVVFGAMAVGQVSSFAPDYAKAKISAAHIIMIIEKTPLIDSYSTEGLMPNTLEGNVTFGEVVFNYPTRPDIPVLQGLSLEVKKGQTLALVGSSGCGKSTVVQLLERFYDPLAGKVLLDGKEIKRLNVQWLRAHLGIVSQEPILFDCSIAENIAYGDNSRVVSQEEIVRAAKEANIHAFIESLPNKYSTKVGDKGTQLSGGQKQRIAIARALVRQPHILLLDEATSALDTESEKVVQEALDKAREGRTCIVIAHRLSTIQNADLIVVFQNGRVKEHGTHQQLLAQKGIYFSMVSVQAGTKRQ

`O=C(COc1ccc(Cl)c(F)c1)NC12CC(c3nnc([C@@H]4C[C@H]4COC(F)(F)F)o3)(C1)C2` (single isomer, unassigned) [Example 81, 2-(4-chloro-3-fluoro-phenoxy)-N-[3-[5-[2-trans-(trifluoromethoxymethyl)cyclopropyl]-1,3,4-oxadiazol-2-yl]-1-bicyclo[1.1.1]pentanyl]acetamide] was tested, and the efflux ratio at 90 min, 3 μM [1] was ≤ 2.5, the IC50 [2, 3] was 11.8 nM and the IC50 [2, 4] was < 1000 nM.

For `O=C(COc1ccc(Cl)c(F)c1)NC12CC(c3nnc(CCCOC(F)(F)F)o3)(C1)C2` [Example 49, 2-(4-chloro-3-fluorophenoxy)-N-(3-(5-(3-(trifluoromethoxy)propyl)-1,3,4-oxadiazol-2-yl)bicyclo[1.1.1]pentan-1-yl)acetamide], the efflux ratio at 90 min, 3 μM [1] was ≤ 2.5, the IC50 [2, 3] was 18.2 nM and the IC50 [2, 4] was < 1000 nM.

With `O=C(CO[C@H]1C[C@@H](OC(F)(F)F)C1)NC12CC(n3cnc(-c4ccc(Cl)c(F)c4)c3)(C1)C2` [Example 70, N-[3-[4-(4-chloro-3-fluoro-phenyl)imidazol-1-yl]-1-bicyclo[1.1.1]pentanyl]-2-[3-cis-(trifluoromethoxy)cyclobutoxy]acetamide] the efflux ratio at 90 min, 3 μM [1] was ≤ 2.5, the IC50 [2, 3] was 2.8 nM and the IC50 [2, 4] was < 1000 nM.

For `O=C(COc1ccc(Cl)c(F)c1)NC12CC(NCCO[C@H]3C[C@@H](OC(F)(F)F)C3)(C1)C2` [Example 133, 2-(4-chloro-3-fluoro-phenoxy)-N-[1-[2-[cis-3-(trifluoromethoxy)cyclobutoxy]ethylamino]-3-bicyclo[1.1.1]pentanyl]acetamide], the efflux ratio at 90 min, 3 μM [1] was ≤ 2.5, the IC50 [2, 3] was 18.1 nM and the IC50 [2, 4] was < 1000 nM.

In the case of `O=C(CO[C@H]1C[C@@H](OC(F)(F)F)C1)NC12CC(n3cnc(-c4ccc(Cl)cc4)c3)(C1)C2` [Example 139, N-(3-(4-(4-chlorophenyl)-1H-imidazol-1-yl)bicyclo[1.1.1]pentan-1-yl)-2-(3-cis-(trifluoromethoxy)cyclobutoxy)acetamide], the efflux ratio at 90 min, 3 μM [1] is reported as ≤ 2.5, the IC50 [2, 3] is reported as 4.3 nM and the IC50 [2, 4] is reported as < 1000 nM.

For `O=C(CO[C@H]1C[C@@H](OC(F)(F)F)C1)NC12CC(n3cnc(-c4ccc(Cl)cc4F)c3)(C1)C2` [Example 146, N-(3-(4-(4-chloro-2-fluorophenyl)-1H-imidazol-1-yl)bicyclo[1.1.1]pentan-1-yl)-2-(3-cis-(trifluoromethoxy)cyclobutoxy)acetamide], the efflux ratio at 90 min, 3 μM [1] was ≤ 2.5, the IC50 [2, 3] was 3.7 nM and the IC50 [2, 4] was < 1000 nM.

`O=C(CO[C@H]1C[C@@H](OC(F)(F)F)C1)NC12CC(c3cnn(-c4ccc(Cl)c(F)c4)c3)(C1)C2` [Example 236, N-(3-(1-(4-chloro-3-fluorophenyl)-1H-pyrazol-4-yl)bicyclo[1.1.1]pentan-1-yl)-2-(3-cis-(trifluoromethoxy)cyclobutoxy)acetamide] was tested, and the efflux ratio at 90 min, 3 μM [1] was ≤ 2.5, the IC50 [2, 3] was 21.5 nM and the IC50 [2, 4] was < 1000 nM.

For `CCO[C@H]1C[C@@H](OCC(=O)NC23CC(n4cnc(-c5ccc(Cl)c(F)c5)c4)(C2)C3)C1` [Example 240], the IC50 [2, 4] was < 1000 nM.

In the case of `O=C(CO[C@H]1C[C@@H](OC(F)(F)F)C1)NC12CC(c3nnc(-c4ccc(Cl)cn4)s3)(C1)C2` [Example 241], the IC50 [2, 4] is reported as < 1000 nM.

`O=C(COc1ccc(Cl)cc1)NC12CC(c3nnn([C@H]4C[C@@H](OC(F)(F)F)C4)n3)(C1)C2` [Example 242] was tested, and the IC50 [2, 4] was < 1000 nM.

In the case of `O=C(CO[C@H]1C[C@@H](OC(F)(F)F)C1)NC12CC(c3nnn(-c4ccc(Cl)cc4)n3)(C1)C2` [Example 243], the IC50 [2, 4] is reported as < 1000 nM.

With `O=C(COc1ccc(Cl)c(F)c1)NC12CC(c3nnc([C@H]4C[C@@H](n5nccn5)C4)o3)(C1)C2` [Example 244] the IC50 [2, 4] was < 1000 nM.

`O=C(COc1ccc(Cl)c(F)c1)NC12CC(c3nnc([C@H]4C[C@@H](n5ccnn5)C4)o3)(C1)C2` [Example 245] was tested, and the IC50 [2, 4] was < 1000 nM.

With `O=C(CO[C@H]1C[C@@H](OC(F)(F)F)C1)NC12CC(NCCOc3ccc(Cl)c(F)c3)(C1)C2` [Example 246] the IC50 [2, 4] was < 1000 nM.

For `O=C(CO[C@H]1C[C@@H](OC(F)(F)F)C1)NC12CC(c3cnc(-c4ccc(Cl)c(F)c4)o3)(C1)C2` [Example 247], the IC50 [2, 4] was < 1000 nM.

For `O=C(CO[C@H]1C[C@@H](OC(F)(F)F)C1)NC12CC(c3cc(-c4ccc(Cl)c(F)c4)no3)(C1)C2` [Example 248, N-(3-(3-(4-chloro-3-fluorophenyl)isoxazol-5-yl)bicyclo[1.1.1]pentan-1-yl)-2-(3-cis-(trifluoromethoxy)cyclobutoxy)acetamide], the efflux ratio at 90 min, 3 μM [1] was ≤ 2.5, the IC50 [2, 3] was 28.2 nM and the IC50 [2, 4] was < 1000 nM.

`O=C(NC12CC(n3cnc(-c4ccc(F)c(F)c4)c3)(C1)C2)[C@H]1C[C@H](OCCOC(F)(F)F)C1` [Example 249] was tested, and the IC50 [2, 4] was < 1000 nM.

For `O=C(CO[C@H]1C[C@@H](OC(F)(F)F)C1)NC12CC(c3cc(-c4ccc(Cl)cc4)no3)(C1)C2` [Example 251], the IC50 [2, 4] was < 1000 nM.

For `O=C(CO[C@H]1C[C@@H](OC(F)(F)F)C1)NC12CC(c3cc(-c4ccc(Cl)cc4F)no3)(C1)C2` [Example 252], the IC50 [2, 4] was < 1000 nM.

With `O=C(NC12CC(c3nnc([C@H]4C[C@@H](OC(F)(F)F)C4)o3)(C1)C2)C(O)Cc1ccc(Cl)cc1` (stereo partly drawn) [Example 253] the IC50 [2, 4] was < 1000 nM.

In the case of `O=C(CO[C@H]1C[C@@H](OC(F)(F)F)C1)NC12CC(n3cnc(-c4ccc(C(F)(F)F)cc4O)c3)(C1)C2` [Example 254, N-(3-(4-(2-hydroxy-4-(trifluoromethyl)phenyl)-1H-imidazol-1-yl)bicyclo[1.1.1]pentan-1-yl)-2-(3-cis-(trifluoromethoxy)cyclobutoxy)acetamide], the efflux ratio at 90 min, 3 μM [1] is reported as ≤ 2.5, the IC50 [2, 3] is reported as 5.3 nM and the IC50 [2, 4] is reported as < 1000 nM.

In the case of `N#Cc1cc(C(F)(F)F)ccc1-c1cn(C23CC(NC(=O)CO[C@H]4C[C@@H](OC(F)(F)F)C4)(C2)C3)cn1` [Example 255], the IC50 [2, 4] is reported as < 1000 nM.

For `O=C(COc1ccc(Cl)c(CO)c1)NC12CC(c3nnc([C@H]4C[C@@H](OC(F)(F)F)C4)o3)(C1)C2` [Example 256], the IC50 [2, 4] was < 1000 nM.

For `O=C(CC(O)c1ccc(Cl)cc1)NC12CC(c3nnc([C@H]4C[C@@H](OC(F)(F)F)C4)o3)(C1)C2` (stereo partly drawn) [Example 257], the IC50 [2, 4] was < 1000 nM.

`O=C(CO[C@H]1C[C@@H](OC(F)(F)F)C1)NC12CC(c3cc(-c4ccc5c(c4)OC(F)(F)O5)no3)(C1)C2` [Example 258] was tested, and the IC50 [2, 4] was < 1000 nM.

For `CC(C)(C)[Si](C)(C)O[C@H]1C[C@@H](c2nnc(C34CC(NC(=O)COc5ccc(Cl)cc5)(C3)C4)o2)C1` [Example 260], the IC50 ([2]; read-out: Activity (IC50)) was < 1000 nM.

For `O=C(COc1ccc(Cl)cc1)NC12CC(c3nnc([C@H]4C[C@@H](O)C4)o3)(C1)C2` [Example 261], the IC50 [2, 4] was 1000 to 10000 nM.

For `CC(COC(F)(F)F)OCC(=O)NC12CC(n3cnc(-c4ccc(Cl)c(F)c4)c3)(C1)C2` (stereo not drawn) [Example 262], the IC50 [2, 4] was < 1000 nM.

In the case of `O=C(CO[C@H]1C[C@@H](OC(F)(F)F)C1)NC12CC(c3cnn(-c4ccc(Cl)cc4)c3)(C1)C2` [Example 263], the IC50 [2, 4] is reported as < 1000 nM.

For `O=C(CO[C@H]1C[C@@H](OC(F)(F)F)C1)NC12CC(N3CCN(c4ccc(Cl)cc4)C3=O)(C1)C2` [Example 264], the IC50 [2, 4] was < 1000 nM.

For `O=C(COc1ccc(Cl)cc1)NC12CC(N3C[C@H](C4CC(OC(F)(F)F)C4)OS3(=O)=O)(C1)C2` (stereo partly drawn) [Example 266], the IC50 [2, 4] was < 1000 nM.

`O=C(CO[C@H]1C[C@@H](OC(F)(F)F)C1)NC12CC(n3cnc(C4=NCC(C(F)(F)F)O4)c3)(C1)C2` (stereo partly drawn) [Example 267] was tested, and the IC50 [2, 4] was < 1000 nM.

`O=C(NC12CC(c3nnc([C@H]4C[C@@H](OC(F)(F)F)C4)o3)(C1)C2)N1CCc2cc(Cl)ccc2C1` [Example 268] was tested, and the IC50 [2, 4] was < 1000 nM.

`O=C(CO[C@H]1C[C@@H](OC(F)(F)F)C1)NC12CC(n3cnc(-c4c(F)cc(Cl)cc4F)c3)(C1)C2` [Example 269] was tested, and the IC50 [2, 3] was 7.5 nM and the IC50 [2, 4] was < 1000 nM.

`O=C(CO[C@H]1C[C@@H](OC(F)(F)F)C1)NC12CC(n3cnc(-c4cc(F)c(Cl)cc4F)c3)(C1)C2` [Example 271] was tested, and the IC50 [2, 4] was < 1000 nM.

For `O=C(CO[C@H]1C[C@@H](OC(F)(F)F)C1)NC12CC(n3cnc(-c4ccc(C(F)(F)F)cc4CO)c3)(C1)C2` [Example 272], the IC50 [2, 4] was < 1000 nM.

With `COC(=O)c1cc(C(F)(F)F)ccc1-c1cn(C23CC(NC(=O)CO[C@H]4C[C@@H](OC(F)(F)F)C4)(C2)C3)cn1` [Example 273] the IC50 [2, 4] was < 1000 nM.

For `CC(COCC(=O)NC12CC(n3cnc(-c4ccc(Cl)c(F)c4)c3)(C1)C2)OC(F)(F)F` (stereo not drawn) [Example 274], the IC50 [2, 4] was < 1000 nM.

In the case of `O=C(CO[C@H]1C[C@@H](OC(F)(F)F)C1)NC12CC(c3cnn(-c4ccccc4)c3)(C1)C2` [Example 275], the IC50 [2, 4] is reported as < 1000 nM.

`O=C(CO[C@H]1C[C@@H](OC(F)(F)F)C1)NC12CC(c3nnc(OCCOC(F)(F)F)o3)(C1)C2` [Example 276] was tested, and the IC50 [2, 4] was < 1000 nM.

`O=C(NC12CC(c3nnc([C@H]4C[C@@H](OC(F)(F)F)C4)o3)(C1)C2)c1cn(CCOC(F)(F)F)cn1` [Example 277] was tested, and the IC50 [2, 4] was < 1000 nM.
